Assay results as given in US12447187B2, “Composition for preventing and treating inflammatory bowel disease including puer tea extract” (priority 2021, dated 2025).

Tested on: DSS-induced ulcerative colitis
Test: DSS-induced ulcerative colitis model (body weight, colon length, histology, DAI)
Format: in vivo, ICR mice
Settings: 3% DSS mice
Description: Experimental animals, ICR mice (6 weeks old male) were supplied from Daehan Biolink (Chungcheongbuk-do Province, Korea) and used. After 1 week of adaptation of experimental animals, 7 animals were accommodated in each group. During the experiment, the breeding conditions were 23±2° C. for a temperature, 55±10% for a relative humidity, and 150 to 300 Lux for lighting with a 12-hour cycle (artificial lighting, 8:00 am-8:00 pm). Feed was powdered feed for laboratory animals, and water was provided freely during the experiment period. Acute ulcerative colitis was induced in mice while allowing free intake of water containing 3% (w/v) of DDS for 14 days. During the experiment, each group of experimental animals was observed by checking whether the mice lost weight, urine and feces tests, and bleeding every day. Experimental animals were classified into the following four groups and the experiment was performed (Table 1). Puer tea extract and ASA were orally administered once a day for 14 days from the day of DDS treatment. After the experiment, mice were sacrificed, and the results were measured. Ulcerative colitis is measured by clinical signs such as weight loss, diarrhea with bleeding and mucus, and shortens the length of the colon. […] Weight loss is calculated as the difference between the initial and present weight. Visible rectal bleeding means diarrhea accompanied by bleeding or total rectal bleeding, and the DAI was calculated by the following equation. […] Puer tea extract (100 mg/kg) was orally administered once a day to 7 mice induced with 3% DSS for 14 days, and then the weights of the mice were measured, and the mean of the data in the triplicate experiment was expressed as ±S.D. Puer tea extract (100 mg/kg) was orally administered once a day for 14 days to 7 mice induced with 3% DSS for 14 days, and then the colon was removed, and the colon length was evaluated (A of FIG. 2). […] DAI was calculated as in Examples 1-5), and the mean of the experimental data was expressed as ±SD.

Substance: 5-acetylsalicylic acid [5-ASA]
- colon length (100 mg/kg orally once a day for 14 days, normal group 8.01±0.16, DSS group 5.25±0.12): 6.77±0.33 cm
- thickness of the barrier muscle layer (H&E colon sections) (14 days, vs DSS group): became thinner again
- DAI clinical symptoms (weight loss, diarrhea, rectal bleeding) (once a day for 14 days, vs DSS single treatment): significantly decreased
